Reference: patent US20020042393A1, “Excipient” (priority 1998, published 2002)
One block for each compound: values may come before it.

Key:
[1] = Whiteness of powder (color analyzer); type: physicochemical; settings: excipient powder
Procedure: (§1) For powder of trehalose or a pharmaceutical composition containing trehalose, values of L, a and b were measured with a color analyzer (TC-1800MKII, mfd. by Tokyo Denshoku Co., Ltd.), and the whiteness of the trehalose or pharmaceutical composition was calculated by the following equation: […]

[2] = Proportion of particles of 75 μm or more (Air Jet Sieve); type: physicochemical; settings: excipient powder
Procedure: Five grams of trehalose was weighed onto a screen having a screen opening of 75 μm, and sifted with Air Jet Sieve (Model 200LS, mfd. by ALPINE) for 5 minutes, and the weight percentage of the weight of particles remaining on the screen based on the total weight of particles was calculated as the proportion of particles of 75 μm or more.

Apparent specific volume = type: physicochemical; settings: excipient powder
Text: The whole of 10 g of trehalose powder was gently poured into a 100-ml measuring cylinder without making an impact (in this case, a cylinder having an outside diameter smaller than the inside diameter of the measuring cylinder was placed in the measuring cylinder, and it was slowly lifted after pouring the trehalose), and the apparent specific volume was expressed as a value obtained by dividing the read volume by the weight of the trehalose.

[3] = Average particle size (sieving, 50% cumulative weight); type: physicochemical; settings: excipient powder
Procedure: Five grams of trehalose was sifted through screens having screen openings of 500 μm, 300 μm and 250 μm, respectively, and then sifted with Air Jet Sieve by using screens having screen openings of 150 μm, 75 μm, 45 μm, 38 μm and 32 μm, respectively. The oversize particle weight percentage [%] was calculated for each screen, and the average particle size is expressed as a particle size corresponding to a cumulative weight percentage of 50%.

[4] = Angle of repose (Sugiwara's instrument); type: physicochemical; settings: excipient powder
Text: Measured by means of a Sugiwara's instrument for measuring angle of repose (Yakuzaigaku 27, p. 260, 1965).

[5] = Change in whiteness of excipient mixed with drug at 40° C. and 75% RH (reactivity); type: physicochemical
Procedure: as §1
One gram of each of the trehaloses obtained in Example 1 and 1 g of isoniazid were mixed and then allowed to stand in an atmosphere of 40° C. and 75% RH, and the change in whiteness of the trehalose was observed. On the other hand, 1 g of each of the trehaloses obtained in Example 1 and 1 g of aminophyline were mixed and then allowed to stand in an atmosphere of 40° C. and 75% RH, and the change in whiteness of the trehalose was observed.
One gram of 100-mesh lactose (available from De Melkindustrie Veghel bv) or 1 g of Mannit S (available from Tohwa Kasei Co., Ltd.) and 1 g of aminophyline were mixed and then allowed to stand in an atmosphere of 40° C. and 75% RH, and the change in whiteness of the lactose or Mannit S was observed.
As a starting material. […]

[6] = Disintegration time according to Japanese Pharmacopoeia; type: physicochemical; settings: listed as C
Procedure: The disintegration time of each of six molded products was measured by the use of ion-exchanged water according to the disintegration time measuring method prescribed in the 13th revised Japanese Pharmacopoeia, and the average of measured values was calculated.

[7] = Water content (Karl Fisher) of tablets before and after storage; type: physicochemical; settings: tablets compressed at 500 kg/cm^2, 0 day
Procedure: Determined as a value obtained by measuring about 0.1 g of trehalose and determining its water content by the Karl Fisher method.
One hundred grams of commercial “Trehaose” (available from Hayashibara Biochemical Laboratories, Inc.) was dissolved in water to a concentration of about 35 wt %, and the resulting solution was concentrated under reduced pressure with heating at 60° C. so as to have a concentration of about 75 wt %, and allowed to stand at room temperature to precipitate crystals, which were washed with 50 ml of water. Glucose was removed by carrying out the above purification procedure once or twice, to increase the trehalose purity. Trehalose A was obtained by carrying out the purification procedure twice to obtain crystals, drying the crystals, grinding the dried crystals with a bantam mill (number of revolutions 15,000 rpm, feed rate 5 kg/hr, and screen opening 2.0 mmφ), and then sifting the ground crystals through a […]. Trehalose B was obtained by carrying out the purification procedure once to obtain crystals, drying the crystals, grinding the dried crystals with a bantam mill (number of revolutions 10,000 rpm, feed rate 5 kg/hr, and screen opening 2.00 mmφ), and then sifting the ground crystals through a 350-μm screen. Trehalose C was obtained by carrying out the purification procedure once to obtain crystals, drying the crystals, grinding the dried crystals with a bantam mill (number of revolutions 8,000 rpm, feed rate 5 kg/hr, and screen opening 2.0 mmφ), and then sifting the ground crystals through a 350-μm screen. […] Each of trehaloses A to C was compressed into tablets at a compression pressure of 500 kg/cm^2, and the tablet hardness immediately after the compression and the tablet hardness after standing for 3 days in an atmosphere of 40° C. and 75% RH after the compression were compared.
“Trehaose” (available from Hayashibara Bioscience Laboratories Co., Ltd.) was purified once by the method described in Example 1 to obtain crystals, which were dried, ground with a bantam mill (number of revolutions 12,000 rpm, feed rate 5 kg/hr, and screen opening 2.0 mmφ) and then dried at 105° C. for 4 hours to obtain trehalose anhydrous crystals. These crystals were compressed into tablets at a compression pressure of 500 kg/cm^2, and the tablet hardnesses of the tablets were compared in the same manner as in Example 1.

[8] = Tablet hardness (Schleuniger hardness meter); type: physicochemical; settings: for Tablet hardness at a compression pressure of 1000 kg/cm^2: phenacetin granules
[9] = Wet granulation of phenacetin mixture with HPC binder solution: granule size and yield
[10] = 1 g excipient + 1 g aminophyline, 0 day
[11] = 1 g excipient + 1 g aminophyline, 40° C. and 75% RH, 5 days

SMILES: OC[C@H]1O[C@H](O[C@H]2O[C@H](CO)[C@@H](O)[C@H](O)[C@H]2O)[C@H](O)[C@@H](O)[C@@H]1O [Trehalose H, trehalose]
Whiteness [1]: 98%
Proportion of particles of 75 μm or more [2]: 91%
Apparent specific volume (Apparent specific volume): 1.5 cm^3/g
Average particle size [3]: 180 μm
Angle of repose [4]: 37 °

SMILES: OC[C@H]1O[C@H](O[C@H]2O[C@H](CO)[C@@H](O)[C@H](O)[C@H]2O)[C@H](O)[C@@H](O)[C@@H]1O [Trehalose C, trehalose]
Whiteness ([5]; 1 g excipient + 1 g aminophyline, 0 day, listed as C): 98%
Whiteness ([5]; 1 g excipient + 1 g aminophyline, 40° C. and 75% RH, 1 month, listed as C): 93%
Whiteness ([5]; 1 g excipient + 1 g isoniazid, 0 day, listed as C): 97%
Whiteness ([5]; 1 g excipient + 1 g isoniazid, 40° C. and 75% RH, 1 month, listed as C): 93%
Whiteness ([1]; listed as C): 95%
Proportion of particles of 75 μm or more ([2]; listed as C): 73%
Apparent specific volume (Apparent specific volume; listed as C): 1.9 cm^3/g
Disintegration time according to Japanese Pharmacopoeia ([6]; Example 8: molded product of trehalose only, 30 kg/cm^2): 10 s
Disintegration time according to Japanese Pharmacopoeia ([6]; Example 10: as Example 9 but molded at 60 kg/cm^2): 33 s
Disintegration time according to Japanese Pharmacopoeia ([6]; process of Example 9: 950 g excipient + 50 g phenylpropanolamine hydrochloride, 30 kg/cm^2): 10 s
Water content ([7]; listed as C): 9.8%
Average particle size ([3]; listed as C): 127 μm
Angle of repose ([4]; listed as C): 40 °
Tablet hardness ([8]; Example 8: molded product of trehalose only, molded at 30 kg/cm^2, dried overnight at 40° C., listed as C): 6.0 kg
Tablet hardness ([8]; Example 10: as Example 9 but molded at 60 kg/cm^2, listed as C): 8.6 kg
Tablet hardness ([8]; process of Example 9: 950 g excipient + 50 g phenylpropanolamine hydrochloride, molded at 30 kg/cm^2, listed as C): 5.6 kg
Tablet hardness ([8]; tablets compressed at 500 kg/cm^2, 0 day (immediately after compression), listed as C): 2.3 kgf
Tablet hardness ([8]; tablets compressed at 500 kg/cm^2, 3 days at 40° C. and 75% RH, listed as C): 2.3 kgf

SMILES: OC[C@H]1O[C@@H](O[C@H]2[C@H](O)[C@@H](O)C(O)O[C@@H]2CO)[C@H](O)[C@@H](O)[C@H]1O (some centres unmarked) [100-Mesh lactose, lactose, reference compound]
Whiteness [5, 10]: 99%
Whiteness [5, 11]: 30%
Proportion of particles of 75 μm or more [2]: 76%
Apparent specific volume (Apparent specific volume): 1.5 cm^3/g
Average particle size [3]: 104 μm
Angle of repose [4]: 43 °

SMILES: OC[C@H]1O[C@H](O[C@H]2O[C@H](CO)[C@@H](O)[C@H](O)[C@H]2O)[C@H](O)[C@@H](O)[C@@H]1O [Trehalose D, trehalose]
Whiteness ([1]; listed as D): 96%
Proportion of particles of 75 μm or more ([2]; listed as D): 1%
Apparent specific volume (Apparent specific volume; listed as D): 4.5 cm^3/g
Average particle size of granules ([9]; phenacetin 50/excipient 30/corn starch 10/microcrystalline cellulose 10, binding solution 100 g): 80 μm
Average particle size of granules ([9]; phenacetin granules, binding solution 120 g): 121 μm
Average particle size of granules ([9]; phenacetin granules, binding solution 160 g): 205 μm
Average particle size ([3]; listed as D): 12 μm
Angle of repose ([4]; listed as D): 65 °
Angle of repose ([4]; listed as trehalose D): 65 °
Tablet hardness at a compression pressure of 1000 kg/cm^2 ([8]; binding solution 100 g): 4.5 kgf
Tablet hardness at a compression pressure of 1000 kg/cm^2 ([8]; binding solution 120 g): 4.1 kgf
Tablet hardness at a compression pressure of 1000 kg/cm^2 ([8]; binding solution 160 g): 3.0 kgf

SMILES: OC[C@H]1O[C@H](O[C@H]2O[C@H](CO)[C@@H](O)[C@H](O)[C@H]2O)[C@H](O)[C@@H](O)[C@@H]1O [Trehalose L, trehalose]
Whiteness ([1]; listed as L): 95%
Proportion of particles of 75 μm or more ([2]; listed as L): 25%
Apparent specific volume (Apparent specific volume; listed as L): 2.5 mL/g
Average particle size ([3]; listed as L): 45 μm

SMILES: OC[C@@H](O)[C@@H](O)[C@H](O)[C@H](O)CO [Mannit S, reference compound]
Whiteness [5, 10]: 100%
Whiteness ([5]; 1 g excipient + 1 g aminophyline, 40° C. and 75% RH, 1 month): 93%
Whiteness [5, 11]: 98%
Proportion of particles of 75 μm or more ([2]; listed as Mannit 5): 68%
Apparent specific volume (Apparent specific volume; listed as Mannit 5): 1.7 cm^3/g
Average particle size ([3]; listed as Mannit 5): 102 μm
Angle of repose ([4]; listed as Mannit 5): 53 °

SMILES: OC[C@H]1O[C@H](O[C@H]2O[C@H](CO)[C@@H](O)[C@H](O)[C@H]2O)[C@H](O)[C@@H](O)[C@@H]1O [Trehalose G, trehalose]
Whiteness ([5]; same manner as in Example 2 (drug not stated), 0 day): 94%
Whiteness ([5]; same manner as in Example 2 (drug not stated), 40° C. and 75% RH, 1 month, listed as G): 87%
Whiteness ([5]; same manner as in Example 2 (drug not stated), 40° C. and 75% RH, 1 month, listed as trehalose G): less than 90%
Whiteness ([1]; listed as G): 94%
Proportion of particles of 75 μm or more ([2]; listed as G): 13%
Apparent specific volume (Apparent specific volume; listed as G): 3.1 cm^3/g
Average particle size ([3]; listed as G): 31 μm
Angle of repose ([4]; listed as G): 49 °

Other lines, results leading:

Whiteness ([1]; listed as M): 97%
Proportion of particles of 75 μm or more ([2]; listed as M): 1%
Apparent specific volume (Apparent specific volume; listed as M): 3.8 mL/g
Average particle size ([3]; listed as M): 8 μm
SMILES: OC[C@H]1O[C@H](O[C@H]2O[C@H](CO)[C@@H](O)[C@H](O)[C@H]2O)[C@H](O)[C@@H](O)[C@@H]1O [Trehalose M, trehalose]

Whiteness [1]: 96%
Proportion of particles of 75 μm or more [2]: 95%
Apparent specific volume (Apparent specific volume): 1.4 cm^3/g
Average particle size [3]: 280 μm
Angle of repose [4]: 30 °
SMILES: OC[C@H]1O[C@H](O[C@H]2O[C@H](CO)[C@@H](O)[C@H](O)[C@H]2O)[C@H](O)[C@@H](O)[C@@H]1O [Trehalose I, trehalose]

Whiteness ([1]; listed as E): 96%
Proportion of particles of 75 μm or more ([2]; listed as E): 3%
Apparent specific volume (Apparent specific volume; listed as E): 3.7 cm^3/g
Average particle size ([3]; listed as E): 25 μm
Angle of repose ([4]; listed as E): 55 °
Angle of repose ([4]; listed as trehalose E): more than 50 °
SMILES: OC[C@H]1O[C@H](O[C@H]2O[C@H](CO)[C@@H](O)[C@H](O)[C@H]2O)[C@H](O)[C@@H](O)[C@@H]1O [Trehalose E, trehalose]

Whiteness ([1]; listed as F): 94%
Proportion of particles of 75 μm or more ([2]; listed as F): 28%
Apparent specific volume (Apparent specific volume; listed as F): 2.3 cm^3/g
Water content ([7]; listed as F): 0.5%
Average particle size ([3]; listed as F): 49 μm
Angle of repose ([4]; listed as F): 45 °
Tablet hardness ([8]; tablets compressed at 500 kg/cm^2, 0 day (immediately after compression), listed as F): 4.5 kgf
SMILES: OC[C@H]1O[C@H](O[C@H]2O[C@H](CO)[C@@H](O)[C@H](O)[C@H]2O)[C@H](O)[C@@H](O)[C@@H]1O [Trehalose F, trehalose]

Whiteness ([1]; listed as N): 88%
Proportion of particles of 75 μm or more ([2]; listed as N): 45%
Apparent specific volume (Apparent specific volume; listed as N): 2.2 mL/g
Average particle size ([3]; listed as N): 70 μm
SMILES: OC[C@H]1O[C@H](O[C@H]2O[C@H](CO)[C@@H](O)[C@H](O)[C@H]2O)[C@H](O)[C@@H](O)[C@@H]1O [Trehalose N, trehalose]
